According to patent US20140302009A1, “Medicinal Agent for Prevention or Treatment of Diseases Associated with Intraocular Neovascularization and/or Intraocular Vascular Hyperpermeability” (Sanwa Kagaku Kenkyusho Co., Ltd., priority 2011, published 2014):

Experiments:
[1] = test system: choroidal neovascularization (CNV); assay: Mouse model of choroidal neovascularization (CNV) induced by laser irradiation; CNV volume at 7 days; type: in vivo; settings: 7 days after laser irradiation; for CNV suppression rate: based on non-treated group
Procedure: In the CNV model, macrophages migrate by the initiation of an inflammation by laser irradiation, and as a result thereof, VEGF is produced, neovascular vessels are generated, and increased vascular permeability is observed.
The both eyes of a male C57BL/6J mice having a body weight of about 20 g (6-week old) were irradiated with laser (irradiated by 4 to 6 spots per one eye) to experimentally induce CNV. As mentioned below, the drugs were administered by an anti-VEGF antibody alone and ranirestat alone, respectively, or by a combination of the two drugs. […] As the anti-VEGF antibody, a mouse anti-VEGF antibody purchased from R&D Systems was used. The number of examples was five per a group, and the following four groups were set.
(a) Untreated group (b) 3 mg/kg ranirestat-administered group: 3 mg/kg of ranirestat was forcibly and orally administered once a day (3 mg/kg/day) (c) Anti-VEGF antibody-administered group: ing of an anti-VEGF antibody was administered by intravitreal injection (d) Combination use group: ing of an anti-VEGF antibody was administered by intravitreal injection+ranirestat was administered (3 mg/kg was forcibly and orally administered once a day (3 mg/kg/day))
Ranirestat was administered from the days of the laser irradiation (20 to 30 minutes after the irradiation) to 7 days after the irradiation. The anti-VEGF antibody was administered by intravitreal injection immediately after the laser irradiation. After completion of the laser irradiation, the mice were bred by general breeding for 7 days, and thereafter the eye balls were excised and the volume of CNV appeared in the choroid was measured. The induction and evaluation of CNV were conducted by the following procedures.
Each mouse was anesthetized by administering 0.30 mL of tribromoethanol to the abdominal cavity of the mouse, and a mydriatics and a local anesthesia were placed a drop of the eyes. Thereafter the both eyes of the mouse were irradiated with laser (wavelength: 532 nm, output: 200 mW, irradiation time: 100 ms, spot size: 100 μm) by 4 to 6 spots per one eye using a laser photocoagulation device (Lumenis). CNV appeared by the laser irradiation, and thereafter the CNV volume increased.
At 7 days after the laser irradiation, each mouse was euthanized under tribromoethanol anesthesia, and the left and right eye balls of the mouse were excised. […] The volume of CNV was measured by importing an image in the vicinity of CNV by a confocal laser microscope (Zeiss LSM5 Pascal) and using image analysis software (NIH Image J). […]
Ranirestat was administered from the day of the laser irradiation (20 to 30 minutes after the irradiation) to seven days after the irradiation. […] The CNV volume was measured in a similar manner to Experiment 1.

[2] = injected into the vitreous body of a human; package insert of ranibizumab; cited from earlier work

O=C1C[C@@]2(C(=O)N1)C(=O)N(Cc1ccc(Br)cc1F)C(=O)c1cccn12 [ranirestat, (3R)-2′-(4-bromo-2-fluorobenzyl)spiro[pyrrolidine-3,4′(1′H)pyrrolo[1,2-a]pyrazine]-1′,2,3′,5(2′H)-tetrone]
CNV suppression rate ([1]; Experiment 1, male C57BL/6J mice, ranirestat 3 mg/kg/day oral, anti-VEGF antibody by intravitreal injection): 18.3% | effect of suppressing the CNV volume as compared to the non-treated group ([1]; Experiment 1, ranirestat 3 mg/kg/day oral, anti-VEGF antibody intravitreal): an effect of suppressing the CNV volume was observed but there was no significant difference | CNV suppression rate ([1]; Experiment 2, ranirestat 10 mg/kg/day oral, anti-VEGF antibody 1 ng by intravitreal injection): 39.3% | effect of suppressing the CNV volume as compared to the non-treated group ([1]; Experiment 2, ranirestat 10 mg/kg/day oral, anti-VEGF antibody 1 ng intravitreal): a significant effect of suppressing the CNV volume was observed

ranibizumab: typical anti-VEGF agent, used as intravitreal injection
elimination half-life [2]: 220 h
